Measurements published in paper PMC8143339, “PK/PD Modeling of the PDE7 Inhibitor—GRMS-55 in a Mouse Model of Autoimmune Hepatitis” (Pharmaceutics, 2021).

What was measured:
[1] = system: PDE7A; settings: in vitro assay; read-out: IC50 PDE7A; cited from earlier work
[2] = system: TNF-α production; parameters: method as in PMID 31899535; settings: rat lipopolysaccharide-induced endotoxemia, PK/PD model; cited from earlier work
[3] = system: paw edema in collagen-induced arthritis; parameters: method as in PMID 31899535; settings: rats with collagen-induced arthritis, PK/PD arthritis progression model; cited from earlier work
[4] = system: ConA-induced hepatitis; assay: Preliminary pharmacological evaluation in ConA-induced hepatitis; type: in vivo, BALB/c mice
Description: ConA was dissolved in sterile saline (2 mg·mL^−1). The studied compounds (GRMS-55, rolipram, and BRL-50481) were dissolved in a mixture of DMSO, PEG 400, and water for injection at a ratio of 25:25:50 (v/v/v). Mice were given an IP injection of the investigated compounds or the corresponding volume of vehicle alone and, thirty minutes later, intravenously (IV) administered with ConA solution. An additional control group received vehicle alone IP instead of the studied compounds followed by IV injection of sterile saline. ConA was given at a dose of 20 mg·kg^−1. Mice were exsanguinated at several time points post-ConA injection. Blood samples were allowed to clot for 0.5 h at room temperature and then centrifuged at 3000× g for 10 min to obtain the serum, which was stored at −20 °C until further analysis.
The influence of PDE inhibitors on the levels of inflammatory mediators and transaminases in ConA-treated mice was investigated in two separate experiments. In the preliminary study, the animals were pretreated IP with GRMS-55 at a dose of 50 mg·kg^−1, the PDE4-selective inhibitor rolipram at a dose of 10 mg·kg^−1, or the PDE7-selective inhibitor BRL-50481 at a dose of 50 mg·kg^−1. Doses of the investigated compounds were chosen based on the results of previous studies. Subsequently, mice were given an IV injection of ConA and sacrificed at 8 h following mitogen dosing. The levels of TNF-α, IL-6, and IFN-γ and the activities of ALT and AST in the mouse serum were measured. This preliminary experiment allowed comparing the activity of the studied PDE inhibitors in this AIH model and helped to select the doses of GRMS-55 for a subsequent pharmacodynamic study. In the final pharmacodynamic experiment, GRMS-55 was administered at two dose levels (50 and 100 mg·kg^−1) followed by ConA administration at a dose of 20 mg·kg^−1. Animals were sacrificed at various time points post-ConA dosing (1, 2, 4, 8 and 24 h). The levels of TNF-α, IL-1β, IL-4, IL-6, IL-10, IL-12, IL-17A, and IFN-γ were measured using a multiplex Luminex assay. In addition, the activities of ALT and AST in the mouse serum were assessed. The concentration–time profiles of the selected biomarkers obtained in this experiment combined with the results of pharmacokinetic analysis allowed the development of a semi-mechanistic PK/PD/disease progression model and the investigation of concentration–effect relationships of GRMS-55.
The serum samples from the preliminary pharmacological study were analyzed using ELISA tests according to the protocols provided by the manufacturers. The TNF-α concentrations were measured using the Mouse TNF-α Quantikine ELISA Kit (R&D Systems, Minneapolis, MN, USA), while the concentrations of IL-6 and IFN-gamma were quantified by ELISA kits manufactured by Cloud-Clone Corp. (Houston, TX, USA). The absorbance of samples was measured on a POLARstar Omega multi-mode microplate reader (BMG LABTECH, Ortenberg, Germany) set at 450 nm wavelength. TNF-α, IL-1β, IL-6, IL-4, IL-10, IL-12, IL-17A, and IFN-γ serum levels in samples from pharmacodynamic experiment were determined by a premixed Magnetic Luminex Assay (R&D Systems, Inc., Minneapolis, MN, USA) according to the manufacturer’s protocol. Serum AST and ALT activities were quantified on a chemistry analyzer BS-800 (Shenzhen Mindray Bio-medical Electronics Co., Ltd., Shenzhen, China).

[5] = system: PDE4B; settings: in vitro assay; read-out: IC50 PDE4B; cited from earlier work
[6] = 8 h after ConA 20 mg/kg IV, IP pretreatment: rolipram 10, BRL-50481 50, GRMS-55 50 mg/kg, vs vehicle control

For `COc1ccc(C2CNC(=O)C2)cc1OC1CCCC1` (stereo not shown) [Rolipram], the IC50 [1] is listed as over 200 µM, the “IC50, suppression of TNF-α production” value [2] is listed as 0.36 µg/mL and the “IC50, decrease of paw edema” value [3] is listed as 0.01 µg/mL. For the same compound, the “decrease of IFN-γ level compared to control group” value ([4]; 10 mg/kg IP, 8 h after ConA) was “approximately 5.0 times”, the “decrease of IL-6 level compared to control group” value ([4]; 10 mg/kg IP, 8 h after ConA) was about 3.8 times and the “reduction of ALT activity compared to vehicle-treated control group” value ([4]; 10 mg/kg IP, 8 h after ConA) was “approximately 18.2 times”. The “reduction of AST activity compared to vehicle-treated control group” value ([4]; 10 mg/kg IP, 8 h after ConA) was about 6.1 times.
For `Cc1ccc([N+](=O)[O-])cc1S(=O)(=O)N(C)C` [BRL-50481], the IC50 [1] is listed as 2.1 µM, the “effect on activities of transaminases” value ([4]; 50 mg/kg IP, 8 h after ConA) is listed as “reduced” and the “effect on serum IFN-γ concentration” value [4, 6] is listed as “decreased”. For the same compound, the “effect on serum IL-6 concentration” value [4, 6] was “no effect”, the “effect on serum TNF-α concentration” value [4, 6] was “decreased” and the IC50 [5] was over 200 µM.
